Experimental findings from ChEMBL document CHEMBL1137339, “Improved therapeutic efficacy of doxorubicin through conjugation with a novel peptide drug delivery technology (Vectocell)” (J Med Chem, 2006) are described below.

Starred links: 1 amine or outer side, 2 acyl side, 3 side chain; linkers in the order of their positions; H or OH if unused. Non-standard residues stand in square brackets, D forms with d. Residues, ends and D or L forms follow the SMILES beside them. ξ: configuration not given here. *: point of attachment. X1 = COc1cccc2c1C(=O)c1c(O)c3c(c(O)c1C2=O)C[C@@](O)(C(=O)COC(=O)CCCN1C(=O)CC(*)C1=O)C[C@@H]3O[C@H]1C[C@H](N)[C@H](O)[C@H](C)O1; X4 = COc1cccc2c1C(=O)c1c(O)c3c(c(O)c1C2=O)C[C@@](O)(C(=O)CO)C[C@@H]3O[C@H]1C[C@H](NC(=O)CCCN2C(=O)CC(*)C2=O)[C@H](O)[C@H](C)O1; X3 = COc1cccc2c1Cc1cc3c(cc1C2)C[C@@](O)(C(=O)CSCN*)C[C@@H]3O[C@H]1C[C@H](N)[C@H](O)[C@H](C)O1; CO = O=C([*:1])[*:2]; ξC = NC(CS)C(=O)O Bounds are passed on as bounds.

The subject of test [1] is MCF7. In words: Cytotoxicity against doxorubicin-sensitive MCF7/6 cell line by WST1 assay. It counts as functional, cell-based. The conditions noted are these: Homo sapiens.
In test [2] the test system is NCI/ADR-RES. Put plainly: Cytotoxicity against doxorubicin-resistant MCF7/Adr cell line by WST1 assay. Format: functional, cell-based. The conditions noted are these: Homo sapiens. On the technique in general: Tetrazolium dyes change colour on reduction, which living cells bring about.
Test [3] deals with HCT-116. In words: Cytotoxicity against doxorubicin-sensitive HCT116 cell line by WST1 assay. It counts as functional, cell-based. The conditions noted are these: Homo sapiens.
The test system of test [4] is HCT-116. Put plainly: Cytotoxicity against HCT116 cell line xenografted in NMRI nu/nu mouse at 15 umol/kg relative to control. It counts as functional, Homo sapiens.
In test [5] the test system is HCT-116. In words: Cytotoxicity against doxorubicin-sensitive HCT116 cell line in presence of verapamil by WST1 assay. Format: functional, cell-based. The conditions noted are these: Homo sapiens.
Test [6] relates to MES-SA/Dx5. Put plainly: Cytotoxicity against doxorubicin-resistant MES-SA/dx5 cell line in presence of verapamil by WST1 assay. Format: functional, cell-based. The conditions noted are these: Homo sapiens.
Test [7] concerns HCT-15. Put plainly: Cytotoxicity against HCT15 cell line by WST1 assay. Format: functional, cell-based. The settings on record: Homo sapiens.
Test [8] concerns MES-SA/Dx5. In words: Cytotoxicity against MES-SA/dx5 cell line by WST1 assay. Format: functional, cell-based. The settings on record: Homo sapiens.
The test system of test [9] is NCI/ADR-RES. In words: Cytotoxicity against doxorubicin-resistant MCF7/Adr cell line in presence of verapamil by WST1 assay. Format: functional, cell-based. The conditions noted are these: Homo sapiens.
Test [10] has as its system HCT-15. In words: Cytotoxicity against doxorubicin-resistant HCT15 cell line in presence of verapamil by WST1 assay. It counts as functional, cell-based. The settings on record: Homo sapiens.
For test [11], the system named is HCT-116. Put plainly: Cytotoxicity against HCT116 cell line xenografted in NMRI nu/nu mouse at 10 umol/kg relative to control. It counts as functional, Homo sapiens.

Broadly, the IC50 is the point on the concentration scale where inhibition reaches its midpoint.

For the compound `COc1cccc2c1C(=O)c1c(O)c3c(c(O)c1C2=O)C[C@@](O)(C(=O)CO)C[C@@H]3O[C@H]1C[C@H](NC(=O)CCCN2C(=O)CC(SCC(N)C(=O)N[C@@H](CO)C(=O)N[C@@H](CCCN=C(N)N)C(=O)N[C@@H](CCCN=C(N)N)C(=O)N[C@@H](C)C(=O)N[C@@H](CCCN=C(N)N)C(=O)N[C@@H](CCCN=C(N)N)C(=O)N[C@@H](CO)C(=O)N3CCC[C@H]3C(=O)N[C@@H](CCCN=C(N)N)C(=O)N[C@@H](Cc3c[nH]cn3)C(=O)N[C@@H](CC(C)C)C(=O)NCC(=O)N[C@@H](CO)C(=O)NCC(=O)N[C@@H](CS)C(=O)O)C2=O)[C@H](O)[C@H](C)O1` (stereo not given in full) (H-[ξC](X4)SRRARRSPRHLGSGC-OH), the IC50 in [1] was determined as 114 µM; in test [2] it was 625 µM; in test [3], 200 µM.

The compound `COc1cccc2c1C(=O)c1c(O)c3c(c(O)c1C2=O)C[C@@](O)(C(=O)CO)C[C@@H]3O[C@H]1C[C@H](NC(=O)CCCN2C(=O)CC(SC[C@H](N)C(=O)N[C@H](C(=O)N[C@@H](CCCCN)C(=O)N[C@@H](CCCN=C(N)N)C(=O)NCC(=O)N[C@@H](CC(C)C)C(=O)N[C@@H](CCCCN)C(=O)N[C@@H](CC(C)C)C(=O)N[C@@H](CCCN=C(N)N)C(=O)N[C@@H](Cc3c[nH]cn3)C(=O)N[C@H](C(=O)N[C@@H](CCCN=C(N)N)C(=O)N3CCC[C@H]3C(=O)N[C@@H](CCCN=C(N)N)C(=O)N[C@H](C(=O)N[C@H](C(=O)N[C@@H](CCCN=C(N)N)C(=O)N[C@@H](CCSC)C(=O)N[C@@H](CC(=O)O)C(=O)N[C@H](C(=O)O)C(C)C)[C@@H](C)O)C(C)C)C(C)C)C(C)C)C2=O)[C@H](O)[C@H](C)O1.O=C(O)C(F)(F)F` (stereo not given in full) (H-C(X4)VKRGLKLRHVRPRVTRMDV-OH) showed an Activity in test [4] of 79.7%.

For the compound `COc1cccc2c1C(=O)c1c(O)c3c(c(O)c1C2=O)C[C@@](O)(C(=O)COC(=O)CCCN1C(=O)CC(SCC(N)C(=O)NCC(=O)N[C@@H](CCCCN)C(=O)N[C@@H](CCCN=C(N)N)C(=O)N[C@@H](CCCCN)C(=O)N[C@@H](CCCCN)C(=O)N[C@@H](CCCCN)C(=O)NCC(=O)N[C@@H](CCCCN)C(=O)N[C@@H](CC(C)C)C(=O)NCC(=O)N[C@@H](CCCCN)C(=O)N[C@@H](CCCCN)C(=O)N[C@@H](CCCN=C(N)N)C(=O)N2CCC[C@H]2C(=O)N[C@@H](CCCN=C(N)N)C(=O)N[C@@H](CO)C(=O)N[C@@H](CCCN=C(N)N)C(=O)N[C@@H](CS)C(=O)O)C1=O)C[C@@H]3O[C@H]1C[C@H](N)[C@H](O)[C@H](C)O1.O=C(O)C(F)(F)F` (stereo not given in full) (H-[ξC](X1)GKRKKKGKLGKKRPRSRC-OH), the Activity in test [4] is recorded as 34.1%. Also, the IC50 is 10 µM in [1], greater than 1000 µM in test [2] and 5 µM in test [3].

Turning to `COc1cccc2c1C(=O)c1c(O)c3c(c(O)c1C2=O)C[C@@](O)(C(=O)COC(=O)CCCN1C(=O)CC(SCC(N)C(=O)N[C@@H](CO)C(=O)N[C@@H](CCCN=C(N)N)C(=O)N[C@@H](CCCN=C(N)N)C(=O)N[C@@H](C)C(=O)N[C@@H](CCCN=C(N)N)C(=O)N[C@@H](CCCN=C(N)N)C(=O)N[C@@H](CO)C(=O)N2CCC[C@H]2C(=O)N[C@@H](CCCN=C(N)N)C(=O)N[C@@H](Cc2c[nH]cn2)C(=O)N[C@@H](CC(C)C)C(=O)NCC(=O)N[C@@H](CO)C(=O)NCC(=O)N[C@@H](CS)C(=O)O)C1=O)C[C@@H]3O[C@H]1C[C@H](N)[C@H](O)[C@H](C)O1.O=C(O)C(F)(F)F` (stereo not given in full) (H-[ξC](X1)SRRARRSPRHLGSGC-OH), the Activity in test [4] was determined as 39%. For the same compound, the values for the IC50 in test [1], in test [2] and in test [3] were 9 µM, 532 µM and 2 µM, respectively.

`COc1cccc2c1C(=O)c1c(O)c3c(c(O)c1C2=O)C[C@@](O)(C(=O)COC(=O)CCCN1C(=O)CC(SC[C@H](N)C(=O)N[C@H](C(=O)N[C@@H](CCCCN)C(=O)N[C@@H](CCCN=C(N)N)C(=O)NCC(=O)N[C@@H](CC(C)C)C(=O)N[C@@H](CCCCN)C(=O)N[C@@H](CC(C)C)C(=O)N[C@@H](CCCN=C(N)N)C(=O)N[C@@H](Cc2c[nH]cn2)C(=O)N[C@H](C(=O)N[C@@H](CCCN=C(N)N)C(=O)N2CCC[C@H]2C(=O)N[C@@H](CCCN=C(N)N)C(=O)N[C@H](C(=O)N[C@H](C(=O)N[C@@H](CCCN=C(N)N)C(=O)N[C@@H](CCSC)C(=O)N[C@@H](CC(=O)O)C(=O)N[C@H](C(=O)O)C(C)C)[C@@H](C)O)C(C)C)C(C)C)C(C)C)C1=O)C[C@@H]3O[C@H]1C[C@H](N)[C@H](O)[C@H](C)O1` (stereo not given in full) (H-C(X1)VKRGLKLRHVRPRVTRMDV-OH): the IC50 came to 29 µM in test [1]; 4 µM in [5]; 133 µM in [2]; 22 µM in [6]; 6 µM in test [3]; 50 µM in test [7]. Besides, the IC50 in test [8] worked out at 81 µM; in [9], 52 µM; in test [10], 11 µM.

In test [11], `COc1cccc2c1Cc1cc3c(cc1C2)C[C@@](O)(C(=O)CSCNC(=O)NCC(=O)N[C@@H](CCCCN)C(=O)N[C@@H](CCCN=C(N)N)C(=O)N[C@@H](CCCCN)C(=O)N[C@@H](CCCCN)C(=O)N[C@@H](CCCCN)C(=O)NCC(=O)N[C@@H](CCCCN)C(=O)N[C@@H](CC(C)C)C(=O)NCC(=O)N[C@@H](CCCCN)C(=O)N[C@@H](CCCCN)C(=O)N[C@@H](CCCN=C(N)N)C(=O)N1CCC[C@H]1C(=O)N[C@@H](CCCN=C(N)N)C(=O)N[C@@H](CO)C(=O)N[C@@H](CCCN=C(N)N)C(=O)N[C@@H](CS)C(=O)O)C[C@@H]3O[C@H]1C[C@H](N)[C@H](O)[C@H](C)O1.O=C(O)C(F)(F)F` ({X3-CO}-GKRKKKGKLGKKRPRSRC-OH) came in with an Activity of 86.2%. Moreover, the IC50 in test [1] is 17 µM; in test [2] it was 862 µM; in test [3], 30 µM.
